From patent publication EP0974351A2, “Medicament for preventing and treating gastrointestinal damage” (JOUVEINAL, priority 1998, dated 2000)
Where “and” joins values, the source holds several entries; their conditions need not be identical. Equal values may be shown once.

Assays:
[1] = test system: TNBS-Induced Chronic Colonic Allodynia; test: TNBS-induced chronic colonic allodynia in rats (colonic distension threshold); format: in vivo, Male Sprague-Dawley rats; conditions: rat, in vivo
Experimental: GABA analogs were evaluated in rats suffering from chronic visceral allodynia induced by trinitrobenzene sulfonic acid (TNBS).
In humans, digestive disorders are often associated with visceral pain. In these pathologies, the visceral pain threshold is decreased, indicating a visceral hypersensitivity. Consequently, the following study was designed to evaluate the effect of injection of TNBS into the colon on visceral pain threshold in an experimental model of colonic distension.
(§1) Male Sprague-Dawley rats weighing 340 to 400 g were used in the study. The animals were housed three per cage in a regulated environment (20 ± 1°C, 50 ± 5% humidity, with light 8:00 AM to 8:00 PM). Under anethesia (ketamine 80 mg/kg i.p.; acepromazin 12 mg/kg i.p.), TNBS (50 mg/kg), or saline (1.5 mL/kg) was injected into the proximal colon (1 cm from the cecum). After the surgery, animals were individually housed in the regulated environment.
(§2) A balloon catheter (5-6 cm length) was inserted through the anus into the colon and kept in position (tip of balloon 5 cm from the anus) by taping the catheter to the base of the tail. The balloon was progressively inflated by step of 5 mm Hg, from 0 to 75 mm Hg, each step of inflation lasting 30 seconds. Each cycle of colonic distension was controlled by a standard barostat. The threshold corresponds to the pressure which produced the first abdominal contraction, at which time the cycle of distension was discontinued. To determine the colonic threshold, four cycles of distension were performed on the same animal.
In a second series, a group of eight rats treated with TNBS were subjected to a colonic distension session.
In a third series, a group of eight rats treated with TNBS received a subcutaneous (sc) injection of gabapentin or CI-1008 30 minutes prior to initiation of the colonic distension cycle.
(§3) All test compounds were dissolved in saline except TNBS. TNBS was dissolved in EtOH 30% (w/v). Subcutaneous injection of vehicle was given in a volume of […].
(§4) Statistical significance between each group was determined using a one-way ANOVA followed by Student's unpaired t-test. Differences were considered statistically significant at p <0.05.
Pain threshold (pressure of distension inducing the first abdominal contraction) after distal colonic distension was determined at Day 7 in two groups of awake rats: control animals and TNBS-treated animals. […] Inflammatory parameters (colon weight, area of hyperemia and necrosis and colonic myeloperoxidase content) were measured in the proximal colon at Day 7 after TNBS treatment.
Gabapentin (100, 300, and 500 mg/kg sc) and CI-1008 (30, 60, 100, and 200 mg/kg sc) were administered 30 minutes before colonic distension and measurement of the inflammatory parameters.

[2] = test system: Colonic Threshold in Normal Rats; test: Colonic distension pain threshold in normal rats; format: in vivo, Male Sprague-Dawley rats; conditions: rat, in vivo
Experimental: as §1, §2
In a first series of experiments, a group of eight rats treated with saline were subjected to a colonic distension session.
as §3, §4

## CN1CC[C@]23c4c5ccc(O)c4O[C@H]2[C@@H](O)C=C[C@H]3[C@H]1C5 [Morphine]
[1]
  Colonic Threshold: 34.22 mm Hg and 46.09 mm Hg and 64.84 mm Hg
  TNBS-induced decrease in pain threshold after colonic distension (in words): completely suppressed
[2]
  colonic pain threshold in normal conditions (control animals), in words: significantly increased
